Where two headings read alike, the source gives them in different places.
How the values were obtained:
cyclophilin A = cyclophilin A (Homo sapiens, UniProt P62937); experiment: Cyclophilin A TR-FRET competitive binding assay; details: competition with CsA-Cy5 for His-tagged CypA, two-hour incubation
Procedure: Cyclophilin A TR-FRET Competitive Binding Assay
Inhibitor potency was measured using a competitive binding assay with a time-resolved fluorescence resonance energy transfer (TR-FRET) readout. […] An IC50 value was calculated using a four-parameter logistic fit.

[1] = test system: Huh-7 HCV replicon cells (1b replicon); experiment: anti-HCV activity in Huh-7 cell line harboring a HCV replicon (luciferase readout); format: cell-based; details: Hepatitis C virus; for EC50: Huh-7, 72 h
[2] = inhibition of viral replication, Huh-7 HCV replicon cells, 3 days, read-out: EC50
[3] = Huh-7, read-out: Replicon 1b % inhibition at 1 μM, 1b replicon, 1 μM compound

Sequence of cyclophilin A (P62937 whole entry, species assumed): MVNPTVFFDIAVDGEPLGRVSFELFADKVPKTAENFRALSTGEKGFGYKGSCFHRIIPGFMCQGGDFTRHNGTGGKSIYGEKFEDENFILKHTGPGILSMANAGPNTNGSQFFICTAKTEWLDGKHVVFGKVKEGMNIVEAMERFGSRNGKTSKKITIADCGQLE

CC1/C=C/c2cc3cc(ccc3cn2)[C@@H](C)NC(=O)[C@@H]2CCCN(N2)C(=O)[C@H](C)NC(=O)[C@H](C(C)C)OC1=O (stereo partly drawn) [Compound 5]
IC50 (cyclophilin A): < 100 nM | EC50 [1, 2]: < 1000 nM | inhibition at 1 µM [1, 3]: 93%

CCC(=O)O[C@H]1CC[C@]2(/C=C/c3ccc4ccc(nc4c3)[C@@H](C)NC(=O)[C@@H]3CCCN(N3)C(=O)[C@H](C)NC(=O)[C@H](C(C)C)OC2=O)CC1 [Compound 111]
IC50 (cyclophilin A): < 100 nM | EC50 [1, 2]: < 1000 nM | inhibition at 1 µM [1, 3]: 99%

CC1/C=C/c2ccc3ccc(nc3c2)[C@@H](C)NC(=O)[C@@H]2CCCN(N2)C(=O)[C@H](C)NC(=O)[C@H](C(C)C)OC1 (single isomer, unassigned) [Compound 34]
IC50 (cyclophilin A): < 100 nM | EC50 [1, 2]: < 1000 nM | inhibition at 1 µM [1, 3]: 91%

CCC(=O)O[C@H]1CC[C@@]2(/C=C/c3ccc4ccc(nc4c3)[C@@H](C)NC(=O)[C@@H]3CCCN(N3)C(=O)[C@H](C)NC(=O)[C@H](C(C)C)OC2=O)CC1 [Compound 109]
IC50 (cyclophilin A): < 100 nM | EC50 [1, 2]: < 1000 nM | inhibition at 1 µM [1, 3]: 99%

CC(C)[C@@H]1OC(=O)[C@H](C)[C@H](O)CCCCc2cccc(c2)[C@@H](C)NC(=O)[C@@H]2CCCN(N2)C(=O)[C@H](C)NC1=O [Compound 10, (2R,5S,11S,14S,17R,18R)-18-Hydroxy-14-isopropyl-2,11,17-trimethyl-15-oxa-3,9,12,28-tetraaza-tricyclo[21.3.1.1*5,9*]octacosa-1(26),23(27),24-triene-4,10,13,16-tetraone]
IC50 (cyclophilin A): < 100 nM | EC50 [1, 2]: < 1000 nM | inhibition at 1 µM [1, 3]: 92%

CCN1CCOC2(/C=C/c3ccc4ccc(nc4c3)[C@@H](C)NC(=O)[C@@H]3CCCN(N3)C(=O)[C@H](C)NC(=O)[C@H](C(C)C)OC2=O)C1 (stereo partly drawn) [Compound 96]
IC50 (cyclophilin A): < 100 nM | EC50 [1]: < 1000 nM | inhibition at 1 µM ([1]; Huh-7, read-out: Replicon 1b % inhibition at 1 μM): 91%

CC(C)[C@@H]1OC(=O)C(CF)(CF)/C=C/c2ccc3ccc(nc3c2)[C@@H](C)NC(=O)[C@@H]2CCCN(N2)C(=O)[C@H](C)NC1=O [Compound 99]
IC50 (cyclophilin A): < 100 nM | EC50 [1, 2]: < 1000 nM | inhibition at 1 µM [1, 3]: 100%

CC(C)[C@@H]1OC(=O)C2(/C=C/c3ccc4ccc(nc4c3)[C@@H](C)NC(=O)[C@@H]3CCCN(N3)C(=O)[C@H](C)NC1=O)CCCOC2 (single isomer, unassigned) [Compound 50]
IC50 (cyclophilin A): < 100 nM | EC50 [1, 2]: < 1000 nM | inhibition at 1 µM [1, 3]: 100%

CC(C)[C@@H]1OC(=O)[C@@](C)(CO)/C=C/c2ccc3ccc(nc3c2)[C@@H](C)NC(=O)[C@@H]2CCCN(N2)C(=O)[C@H](C)NC1=O [Compound 29]
IC50 (cyclophilin A): < 100 nM | EC50 [1, 2]: < 1000 nM | inhibition at 1 µM [1, 3]: 99%

CO[C@@H](C)[C@@H]1OC(=O)C(C)(C)/C=C/c2ccc3ccc(nc3c2)[C@@H](C)NC(=O)[C@@H]2CCCN(N2)C(=O)[C@H](C)NC1=O [Compound 54]
IC50 (cyclophilin A): 101 to 1000 nM | EC50 [1, 2]: < 1000 nM | inhibition at 1 µM [1, 3]: 77%

CC(C)[C@@H]1OC(=O)C(C)(C)/C=C/c2ccc3ccc(nc3c2)[C@@H](C)N(C)C(=O)[C@@H]2CCCN(N2)C(=O)[C@H](CO)NC1=O [Compound 41]
IC50 (cyclophilin A): < 100 nM | EC50 [1, 2]: < 1000 nM | inhibition at 1 µM [1, 3]: 98%

CC(C)[C@@H]1OC(=O)[C@]2(/C=C/c3ccc4ccc(nc4c3)[C@@H](C)NC(=O)[C@@H]3CCCN(N3)C(=O)[C@H](C)NC1=O)CCOC(C)(C)C2 [Compound 91]
IC50 (cyclophilin A): < 100 nM | EC50 [1, 2]: < 1000 nM | inhibition at 1 µM [1, 3]: 100%

CC(CC[C@@H]1C/C=C/c2cc3cc(ccc3cn2)[C@@H](C)NC(=O)[C@@H]2CCCN(N2)C(=O)[C@H](C)NC(=O)[C@H](C(C)C)OC1=O)=NOCCN1CCOCC1 (mixture of isomers) [Compound 15]
IC50 (cyclophilin A): < 100 nM | EC50 [1, 2]: < 1000 nM | inhibition at 1 µM [1, 3]: 98%

CC[C@H](C)[C@@H]1OC(=O)C2(/C=C/c3ccc4ccc(nc4c3)[C@@H](C)NC(=O)[C@@H]3CCCN(N3)C(=O)[C@H](C)NC1=O)COCOC2 [Compound 65]
IC50 (cyclophilin A): < 100 nM | EC50 [1, 2]: < 1000 nM | inhibition at 1 µM [1, 3]: 99%

COCC1NC(=O)C(C(C)C)OC(=O)C(C)(C)C=Cc2ccc3ccc(nc3c2)C(C)NC(=O)C2CCCN(N2)C1=O (single isomer, unassigned) [Compound 39]
IC50 (cyclophilin A): 101 to 1000 nM | EC50 [1, 2]: 1100 to 10000 nM | inhibition at 1 µM [1, 3]: 16%

CC(=O)CC[C@@H]1C/C=C/c2cc3cc(ccc3cn2)[C@@H](C)NC(=O)[C@@H]2CCCN(N2)C(=O)[C@H](C)NC(=O)[C@H](C(C)C)OC1=O (mixture of isomers) [Compound 14]
IC50 (cyclophilin A): < 100 nM | EC50 [1, 2]: < 1000 nM | inhibition at 1 µM [1, 3]: 100%

CC(C)[C@@H]1OC(=O)[C@H](CCC(C)N(C)C)C/C=C/c2cc3cc(ccc3cn2)[C@@H](C)NC(=O)[C@@H]2CCCN(N2)C(=O)[C@H](C)NC1=O (mixture of isomers) [Compound 16]
IC50 (cyclophilin A): < 100 nM | EC50 [1, 2]: 1100 to 10000 nM | inhibition at 1 µM [1, 3]: 20%

CC(C)C(=O)O[C@H]1CC[C@]2(/C=C/c3ccc4ccc(nc4c3)[C@@H](C)NC(=O)[C@@H]3CCCN(N3)C(=O)[C@H](C)NC(=O)[C@H](C(C)C)OC2=O)CC1 [Compound 81]
IC50 (cyclophilin A): < 100 nM | EC50 [1, 2]: < 1000 nM | inhibition at 1 µM [1, 3]: 100%

CC(C)[C@@H]1OC(=O)[C@@](C)(CO)CCc2ccc3ccc(nc3c2)[C@@H](C)NC(=O)[C@@H]2CCCN(N2)C(=O)[C@H](C)NC1=O [Compound 30]
IC50 (cyclophilin A): < 100 nM | EC50 [1, 2]: < 1000 nM | inhibition at 1 µM [1, 3]: 84%

CO[C@@H]1/C=C/c2cc3cc(ccc3cn2)[C@@H](C)NC(=O)[C@@H]2CCCN(N2)C(=O)[C@H](C)NC(=O)[C@H](C(C)C)OC(=O)[C@@H]1C [Compound 2]
IC50 (cyclophilin A): < 100 nM | EC50 [1, 2]: < 1000 nM | inhibition at 1 µM [1, 3]: 98%

CC(C)[C@@H]1OC(=O)C2(/C=C/c3ccc4ccc(nc4c3)[C@@H](C)NC(=O)[C@@H]3CCCN(N3)C(=O)[C@H](C)NC1=O)CCCOC2 (single isomer, unassigned) [Compound 51]
IC50 (cyclophilin A): < 100 nM | EC50 [1, 2]: < 1000 nM | inhibition at 1 µM [1, 3]: 100%

CC(C)[C@@H]1OC(=O)C2(/C=C/c3ccc4ccc(nc4c3)[C@@H](C)NC(=O)[C@@H]3CCCN(N3)C(=O)[C@H](C)NC1=O)CN(S(C)(=O)=O)CCO2 (stereo partly drawn) [Compound 97]
IC50 (cyclophilin A): < 100 nM | EC50 [1, 2]: < 1000 nM | inhibition at 1 µM [1, 3]: 96%

CC(C)[C@@H]1OC(=O)[C@@](C)(COC(F)F)/C=C/c2ccc3ccc(nc3c2)[C@@H](C)NC(=O)[C@@H]2CCCN(N2)C(=O)[C@H](C)NC1=O [Compound 55]
IC50 (cyclophilin A): < 100 nM | EC50 [1, 2]: < 1000 nM | inhibition at 1 µM [1, 3]: 100%

C[C@@H]1NC(=O)[C@H](C2CC2)OC(=O)C2(/C=C/c3ccc4ccc(nc4c3)[C@@H](C)NC(=O)[C@@H]3CCCN(N3)C1=O)CCC(O)CC2 (stereo partly drawn) [Compound 66]
IC50 (cyclophilin A): < 100 nM | EC50 [1, 2]: < 1000 nM | inhibition at 1 µM [1, 3]: 97%

CCC[C@@H]1C/C=C/c2cc3cc(ccc3cn2)[C@@H](C)NC(=O)[C@@H]2CCCN(N2)C(=O)[C@H](C)NC(=O)[C@H](C(C)C)OC1=O [Compound 4]
IC50 (cyclophilin A): < 100 nM | EC50 [1, 2]: < 1000 nM | inhibition at 1 µM [1, 3]: 100%

CC(C)[C@@H]1OC(=O)C/C=C/c2cc3cc(ccc3cn2)[C@@H](C)NC(=O)[C@@H]2CCCN(N2)C(=O)[C@H](C)NC1=O [Compound 3]
IC50 (cyclophilin A): < 100 nM | EC50 [1, 2]: < 1000 nM | inhibition at 1 µM [1, 3]: 89%

C[C@@H]1NC(=O)[C@H](C2CCC2)OC(=O)C(C)(C)/C=C/c2ccc3ccc(nc3c2)[C@@H](C)NC(=O)[C@@H]2CCCN(N2)C1=O [Compound 52]
IC50 (cyclophilin A): < 100 nM | EC50 [1, 2]: < 1000 nM | inhibition at 1 µM [1, 3]: 100%

C[C@@H]1NC(=O)[C@H](C2CC2)OC(=O)C2(/C=C/c3ccc4ccc(nc4c3)[C@@H](C)NC(=O)[C@@H]3CCCN(N3)C1=O)CCC(O)C2 (stereo partly drawn) [Compound 102]
IC50 (cyclophilin A): < 100 nM | EC50 [1, 2]: 1100 to 10000 nM | inhibition at 1 µM [1, 3]: 13%

CCCC(=O)O[C@H]1CC[C@]2(/C=C/c3ccc4ccc(nc4c3)[C@@H](C)NC(=O)[C@@H]3CCCN(N3)C(=O)[C@H](C)NC(=O)[C@H](C(C)C)OC2=O)CC1 [Compound 82]
IC50 (cyclophilin A): < 100 nM | EC50 [1, 2]: < 1000 nM | inhibition at 1 µM [1, 3]: 99%

CC(C)[C@@H]1OC(=O)C2(/C=C/c3ccc4ccc(nc4c3)[C@@H](C)NC(=O)[C@]3(C)CCCN(N3)C(=O)[C@H](C)NC1=O)CCC(O)CC2 (mixture of isomers) [Compound 94]
IC50 (cyclophilin A): < 100 nM | EC50 [1, 2]: < 1000 nM | inhibition at 1 µM [1, 3]: 94%

CC(C)[C@H]1C(=O)N[C@@H](C)C(=O)N2CCC[C@H](N2)C(=O)O[C@H](C)c2ccc3ccc(cc3n2)/C=C/C(C)(C)CN1C [Compound 26]
IC50 (cyclophilin A): 101 to 1000 nM | EC50 [1, 2]: < 1000 nM | inhibition at 1 µM [1, 3]: 68%

CC1/C=C/c2ccc3ccc(nc3c2)[C@@H](C)OC(=O)[C@@H]2CCCN(N2)C(=O)[C@H](C)NC(=O)[C@H](C(C)C)OC1 (single isomer, unassigned) [Compound 27]
IC50 (cyclophilin A): < 100 nM | EC50 [1, 2]: < 1000 nM | inhibition at 1 µM [1, 3]: 92%

C[C@@H]1NC(=O)[C@H](C2CC2)OC(=O)C2(/C=C/c3ccc4ccc(nc4c3)[C@@H](C)NC(=O)[C@@H]3CCCN(N3)C1=O)COCOC2 [Compound 53]
IC50 (cyclophilin A): < 100 nM | EC50 [1, 2]: < 1000 nM | inhibition at 1 µM [1, 3]: 99%

C[C@@H]1NC(=O)[C@H]([C@@H](C)OC(C)(C)C)OC(=O)C(C)(C)/C=C/c2ccc3ccc(nc3c2)[C@@H](C)NC(=O)[C@@H]2CCCN(N2)C1=O [Compound 86]
IC50 (cyclophilin A): 101 to 1000 nM | EC50 [1, 2]: < 1000 nM | inhibition at 1 µM [1, 3]: 93%

CC(C)[C@@H]1OC(=O)C2(/C=C/c3ccc4ccc(nc4c3)[C@@H](C)NC(=O)[C@@H]3CCCN(N3)C(=O)[C@H](C)NC1=O)CCN(C(=O)OC(C)(C)C)CC2 [Compound 84]
IC50 (cyclophilin A): 1000 to 10000 nM | EC50 [1, 2]: 1100 to 10000 nM | inhibition at 1 µM [1, 3]: 10%

CC(F)[C@@H]1OC(=O)C(C)(C)/C=C/c2ccc3ccc(nc3c2)[C@@H](C)NC(=O)[C@@H]2CCCN(N2)C(=O)[C@H](C)NC1=O (stereo partly drawn) [Compound 68]
IC50 (cyclophilin A): < 100 nM | EC50 [1, 2]: < 1000 nM | inhibition at 1 µM [1, 3]: 93%

From patent publication US9642889B2, “Macrocyclic inhibitors of Flaviviridae viruses” (Selcia Limited, priority 2012, dated 2017)
